Reference: patent US5240929A, “2-heterocyclic-5-hydroxy-1,3-pyrimidines useful as antiinflammatory agents” (Warner-Lambert Company, priority 1992, dated 1993)

Experiments:
5-lipoxygenase = biological target: T1, 5-lipoxygenase (Rattus norvegicus, UniProt P12527); assay: ARBL whole cell 5-lipoxygenase assay (inhibition of LTB4 formation in RBL-1 cells); type: cell-based; details: RBL-1 whole cells; 50% inhibition of LTB4 formation; calcium ionophore A23187 (5 μM); RIA
T1 construct: host or cells: RBL-1 (rat basophilic leukemia)
T1 sequence (P12527 1-673): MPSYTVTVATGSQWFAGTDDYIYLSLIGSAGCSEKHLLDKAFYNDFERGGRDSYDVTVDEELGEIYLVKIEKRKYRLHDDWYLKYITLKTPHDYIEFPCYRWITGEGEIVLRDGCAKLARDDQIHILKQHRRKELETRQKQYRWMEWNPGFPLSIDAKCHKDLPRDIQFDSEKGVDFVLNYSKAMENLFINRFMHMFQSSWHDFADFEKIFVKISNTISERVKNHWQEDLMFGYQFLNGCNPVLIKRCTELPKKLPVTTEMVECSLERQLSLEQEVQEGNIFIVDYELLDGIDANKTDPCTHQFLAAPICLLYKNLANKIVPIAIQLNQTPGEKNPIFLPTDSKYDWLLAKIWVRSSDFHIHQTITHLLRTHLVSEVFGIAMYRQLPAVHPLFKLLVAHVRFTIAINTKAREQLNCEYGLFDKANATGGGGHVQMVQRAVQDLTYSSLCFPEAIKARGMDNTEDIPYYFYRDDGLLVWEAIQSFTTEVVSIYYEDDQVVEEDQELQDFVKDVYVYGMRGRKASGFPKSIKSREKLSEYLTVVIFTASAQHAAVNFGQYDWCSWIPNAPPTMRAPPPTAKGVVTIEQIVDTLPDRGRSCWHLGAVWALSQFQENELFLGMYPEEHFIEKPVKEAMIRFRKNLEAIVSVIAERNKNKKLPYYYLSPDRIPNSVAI
Protocol: (§1) ARBL/ARBC WHOLE CELL 5-LIPOXYGENASE AND CYCLOOXYGENASE ASSAYS The rat basophilic leukemia cell line (RBL-1) was obtained from the American Type Culture Collection (Rockville, Md.). Radioimmunoassay (RIA) kits of LTB4 and PGF2α were obtained from Amersham (Arlington Heights, Ill.) and Seragen (Boston, Mass.), respectively. RBL-1 cells are grown in suspension culture in Eagle's minimum essential medium supplemented with 12% fetal bovine serum at 37° C. in an incubator supplied with air-5% carbon dioxide. Cells are harvested by centrifugation. They are washed with cold phosphate buffered saline pH 7.4 (PBS; NaCl, 7.1 g; NaHPO, 1.15 g; KHPO, 0.2 g; and KCl, 0.2 g/l). Cells are finally suspended in PBS containing 1.0 mM calcium at a density of […] cells/ml. Cells are incubated with and without test agent (in DMSO) (1% DMSO is without effect on arachidonic acid metabolism) for ten minutes at room temperature. Calcium ionophore A23187 (5 μM) is added and cells are incubated for seven minutes at 37° C. The reaction is stopped by chilling the tubes on ice for ten minutes. Cells are separated by centrifugation and the supernatant is stored at -20°. Aliquots (100 μL) are analyzed for LTB4 and PGF2α using radioimmunoassay kits as provided by the supplier. […]

cyclooxygenase = assay: ARBC whole cell cyclooxygenase assay (inhibition of PGF2α formation in RBL-1 cells); type: cell-based, rat; details: RBL-1 whole cells; 50% inhibition of PGF2α formation; calcium ionophore A23187 (5 μM); RIA
Protocol: as §1

- IC50 (5-lipoxygenase): 1180 nM
- IC50 (cyclooxygenase): 1350 nM
Compound: CON(C)C(=O)c1nc(C(C)(C)C)c(O)c(C(C)(C)C)n1 [Example 1, 4,6-Bis(1,1-dimethylethyl)-5-hydroxy-N-methoxy-N-methyl-2-pyrimidinecarboxamide]
